The text below walks through data of patent EP3995502A1, “4-HYDROXYPHENYL PHOSPHONIUM SALTS WITH ANTI-PARASITIC PROPERTIES” (priority 2019, dated 2021).

SMILES strings stand for the structures. Read-outs that look alike come from different tables or passages of the source.

Series [1] has as its system L. donovani intracellular amastigotes. Put plainly: In vitro leishmanicidal activity, MTT colorimetric method, intracellular amastigotes. The following applies: read-out: EC50 (µM) L. donovani intracellular amastigotes. Background: Formazan colour is commonly taken as a measure of viable cells.
Series [2] concerns L. donovani promastigotes. Put plainly: In vitro leishmanicidal activity, MTT colorimetric method, promastigotes. The following applies: read-out: EC50 (µM) L. donovani promastigotes.
In series [3] the test system is L. infantum intracellular amastigotes. Put plainly: Leishmanicidal activity on intracellular amastigotes of clinical isolates of L. infantum. The format is cell-based. The text has this: (§1) The data represent the mean ± standard deviation of 3 independent experiments. ^b SI = selectivity index (EC50 THP-1 / EC50 parasite (amastigote form)). ^c not assayed. ^d Sensitivity data obtained in L. infantum LEM3049. ^eAmphotericin B. ^fMiltefosine.
(§2) ^aClinical isolates of L. infantum used: LEM 3049 as a reference line; LEM 3323, resistant to Sb^III; LEM 5159, resistant to miltefosine (MIL) and LEM 2126, resistant to MIL and paromomycin. Amphotericin B (AmB) was used as a reference drug. The data represent the mean ± standard deviation of 3 independent experiments.

For series [4], the system named is L. infantum promastigotes. Put plainly: Leishmanicidal activity on promastigotes of clinical isolates of L. infantum. The format is cell-based.
Text: as §1, §2

In series [5] the test system is THP-1 cells.
In series [6] the test system is T. brucei B48. Put plainly: microbe, parasite or virus in culture. Also noted: RF: unit not given here. The format is cell-based, T. b. brucei. The following applies: for EC50: Trypanosoma brucei, read-out: EC50 (µM) T. brucei B48.
The test system of series [7] is T. brucei (strain s427 of T. b. brucei). Put plainly: In vitro trypanocidal activity, sensitive strain s427. The format is cell-based. Particulars: Trypanosoma brucei, read-out: EC50 (µM) T. brucei.
Series [8] relates to THP-1 cells. Put plainly: cells. Particulars: Homo sapiens, THP-1, read-out: EC50 (µM) THP-1 cells.
The nature of series [9]: in vitro. Particulars: human, liver microsomes. A general note: Liver microsomes are a subcellular fraction often used to study metabolism.
Series [10] can be described thus: in vitro. Particulars: human, liver S9 fraction.
The conditions of series [11]: human, liver microsomes.
Where [12] appears, read: strain HU3, mean ± standard deviation of 3 independent experiments.
The mark [13] stands for this setting: selectivity index (EC50 THP-1 / EC50 parasite (amastigote form)), L. donovani.
[14] abbreviates: strain s427 of T. b. brucei, mean ± standard deviation of 3 independent experiments.

For `C[C@@H]1[C@H](O)[C@@H](C)/C=C/C=C/C=C/C=C/C=C/C=C/C=C/[C@H](O[C@@H]2O[C@H](C)[C@@H](O)[C@H](N)[C@@H]2O)C[C@@H]2O[C@](O)(C[C@@H](O)C[C@@H](O)[C@H](O)CC[C@@H](O)C[C@@H](O)CC(=O)O[C@H]1C)C[C@H](O)[C@H]2C(=O)O` [AmB, Amphotericin B], the EC50 (usually the concentration at which the effect is half-maximal) in series [1] (setting [12]) is 0.24 µM; in series [2] (setting [12]), 0.13 ± 0.02 µM; in [3] (L. infantum LEM3049, reference line, read-out: EC50 (µM) Intracellular amastigotes), 0.17 ± 0.02 µM; in series [3] (L. infantum LEM3323, resistant to SbIII, read-out: EC50 (µM) Intracellular amastigotes), 0.18 ± 0.02 µM; in [3] (L. infantum LEM5159, resistant to miltefosine, read-out: EC50 (µM) Intracellular amastigotes) it was 0.16 ± 0.03 µM; in series [3] (L. infantum LLM2126, resistant to MIL and paromomycin, read-out: EC50 (µM) Intracellular amastigotes), 0.16 ± 0.01 µM. Besides, the 50% effective concentration (EC50) was 0.06 ± 0.02 µM in series [4] (L. infantum LEM3049, reference line, read-out: EC50 (µM) Promastigotes); 0.07 ± 0.03 µM in [4] (L. infantum LEM3323, resistant to SbIII, read-out: EC50 (µM) Promastigotes); 0.05 ± 0.01 µM in series [4] (L. infantum LEM5159, resistant to miltefosine, read-out: EC50 (µM) Promastigotes); 0.1 ± 0.02 µM in series [4] (L. infantum LLM2126, resistant to MIL and paromomycin, read-out: EC50 (µM) Promastigotes); 27.9 µM in series [5] (read-out: EC50 (µM) THP-1 cells, human THP-1 cells, cytotoxicity). Moreover, the SI in series [5] (setting [13]) came out at 116.0.

Consider `N=C(N)c1ccc(/N=N/Nc2ccc(C(=N)N)cc2)cc1` [Dimin, Diminazene], for which the values for the concentration for a half-maximal effect (EC50) in series [6] and in series [7] were 1.33 ± 0.14 µM and 0.101 µM, respectively.

On to `CCCCCCCCCCCCCCCCOP(=O)([O-])OCC[N+](C)(C)C` [MIL, Miltefosine], for which the 50% effective concentration (EC50) in [1] (Leishmania donovani) stood at 0.91 ± 0.05 µM; in series [2] (Leishmania donovani) it was 6.51 ± 0.35 µM; in [8], 26.2 ± 2.58 µM. Further, the SI in series [5] (setting [13]) worked out at 28.8.

For the compound `N=C(N)c1ccc(OCCCCCOc2ccc(C(=N)N)cc2)cc1` [Pent, Pentamidine], the results for the EC50 in series [6] and in [7] (setting [14]) were 0.55 ± 0.03 µM and 0.0033 ± 0.0006 µM, respectively.

With `Cc1cc(O)ccc1C(=O)CCCCCCCCCCCCCCC[P+](c1ccccc1)(c1ccccc1)c1ccccc1.[Br-]` [compound 2, (16-(4-hydroxy-2-methylphenyl)-16-oxohexadecyl)triphenylphosphonium bromide], the EC50 in [1] (Leishmania donovani) turned out to be 0.1 ± 0.01 µM; in [6], 0.044 µM; in series [2] (Leishmania donovani) it was 0.09 ± 0.01 µM; in series [7] (setting [14]), 0.043 µM; in [8], 2.45 ± 0.41 µM. In addition, the RF in series [6] was found to be 1.01. In addition, the SI in series [5] came out at 24.5.

`Cc1cc(O)ccc1C(=O)CCCCCCCCCCCCCCC[P+](c1ccccc1)(c1ccccc1)c1ccccn1.[Br-]` [compound 3, (16-(4-hydroxy-2-methylphenyl)-16-oxohexadecyl)diphenyl(pyridin-2-yl)phosphonium bromide]: the half-maximal effective concentration (EC50) was found to be 0.1 ± 0.02 µM in [1] (Leishmania donovani); 0.096 µM in series [6]; 0.28 ± 0.05 µM in series [2] (Leishmania donovani); 0.107 µM in series [7] (setting [14]); 2.11 ± 0.12 µM in [8]. In series [6], this compound gave an RF of 0.90. In series [5], this compound showed an SI of 21.1.

For the compound `O=C(CCCCCCCCCCCCCCC[P+](c1cccc2ccccc12)(c1cccc2ccccc12)c1cccc2ccccc12)c1ccc(O)cc1O.[Br-]` [compound 4, (16-(2,4-dihydroxyphenyl)-16-oxohexadecyl)tri(naphthalen-1-yl)phosphonium bromide], the EC50 in series [3] (Leishmania infantum, footnote d: sensitivity data obtained in L. infantum LEM3049, read-out: EC50 (µM) L. donovani intracellular amastigotes) was found to be 1.25 ± 0.22 µM; in series [4] (Leishmania infantum, footnote d: sensitivity data obtained in L. infantum LEM3049, read-out: EC50 (µM) L. donovani promastigotes) it was 3.54 ± 0.36 µM; in [8] it was 12.8 ± 2.3 µM. Also, in [5] (selectivity index (EC50 THP-1 / EC50 parasite (amastigote form)), parasite data from L. infantum LEM3049), the SI is reported as 10.3.

Turning to `O=C(O)Cc1ccccc1Nc1c(Cl)cccc1Cl` [diclofenac], the half-life in series [9] and in series [10] was under 30 min in each case. For the same compound, the intrinsic clearance entry in [11] is given as “high”.
